Laboratory results taken from the CheMixHub ionic liquid set.

Assay: xn = mol fraction of the nth substance listed

CCOS(=O)(=O)[O-].CC[n+]1ccn(C)c1 + CCO + O
298.15 K, 101 kPa
Settings | viscosity [mPa·s]
x2 = 0.0425, x3 = 0.9493 | 1.473
x2 = 0.0462, x3 = 0.9365 | 1.767
x2 = 0.054, x3 = 0.9172 | 2.239
x2 = 0.0603, x3 = 0.8923 | 2.787
x2 = 0.0723, x3 = 0.8613 | 3.311
x2 = 0.0829, x3 = 0.8208 | 4.237
x2 = 0.0885, x3 = 0.9037 | 2.015
x2 = 0.0898, x3 = 0.1724 | 43.71
x2 = 0.0906, x3 = 0.3653 | 26.4
x2 = 0.1018, x3 = 0.8819 | 2.162
x2 = 0.1162, x3 = 0.8569 | 2.603
x2 = 0.1307, x3 = 0.8254 | 2.848
x2 = 0.1473, x3 = 0.8454 | 2.302
x2 = 0.1532, x3 = 0.7862 | 3.265
x2 = 0.1618, x3 = 0.823 | 2.558
x2 = 0.1776, x3 = 0.736 | 3.981
x2 = 0.1798, x3 = 0.7952 | 2.666
x2 = 0.1867, x3 = 0.3267 | 19.71
x2 = 0.203, x3 = 0.4762 | 11.23
x2 = 0.2036, x3 = 0.7562 | 3.061
x2 = 0.213, x3 = 0.6721 | 4.695
x2 = 0.2156, x3 = 0.7777 | 2.443
x2 = 0.2354, x3 = 0.7098 | 3.148
x2 = 0.2358, x3 = 0.7503 | 2.537
x2 = 0.2581, x3 = 0.7192 | 2.751
x2 = 0.2884, x3 = 0.6757 | 2.836
x2 = 0.2972, x3 = 0.6968 | 2.342
x2 = 0.3097, x3 = 0.4125 | 8.578
x2 = 0.3172, x3 = 0.5831 | 4.026
x2 = 0.3196, x3 = 0.668 | 2.391
x2 = 0.3235, x3 = 0.6281 | 3.109
x2 = 0.3439, x3 = 0.6361 | 2.653
x2 = 0.3528, x3 = 0.1226 | 18.65
x2 = 0.354, x3 = 0.5781 | 3.217
x2 = 0.3804, x3 = 0.5884 | 2.55
x2 = 0.3862, x3 = 0.6086 | 2.334
x2 = 0.4044, x3 = 0.3559 | 6.856
x2 = 0.4138, x3 = 0.5756 | 2.347
x2 = 0.4195, x3 = 0.5389 | 2.799
x2 = 0.4403, x3 = 0.5426 | 2.299
x2 = 0.4582, x3 = 0.4849 | 2.967
x2 = 0.4657, x3 = 0.1012 | 12.87
x2 = 0.4793, x3 = 0.4944 | 2.444
x2 = 0.4911, x3 = 0.5046 | 2.027
x2 = 0.521, x3 = 0.4447 | 2.385
x2 = 0.5486, x3 = 0.4376 | 2.109
x2 = 0.5636, x3 = 0.3905 | 2.443
x2 = 0.6042, x3 = 0.159 | 5.533
x2 = 0.6339, x3 = 0.3399 | 1.976
x2 = 0.6484, x3 = 0.2101 | 3.5
x2 = 0.6523, x3 = 0.3414 | 1.735
x2 = 0.6548, x3 = 0.0654 | 6.067
x2 = 0.6675, x3 = 0.2976 | 2.007
x2 = 0.7086, x3 = 0.2767 | 1.737
x2 = 0.7178, x3 = 0.241 | 2.045
x2 = 0.7723, x3 = 0.2038 | 1.728
x2 = 0.8545, x3 = 0.0276 | 2.451
x2 = 0.8653, x3 = 0.125 | 1.406
x2 = 0.9072, x3 = 0.0792 | 1.343
x2 = 0.9667, x3 = 0.0134 | 1.317

CNC(C)=O + CCCC[n+]1ccn(C)c1.F[B-](F)(F)F
101 kPa
Settings | viscosity [mPa·s]
293.15 K, x2 = 0.0711 | 6.4
293.15 K, x2 = 0.1409 | 7.42
293.15 K, x2 = 0.4343 | 19.1
293.15 K, x2 = 0.7774 | 65.8
298.15 K, x2 = 0.0711 | 5.41
298.15 K, x2 = 0.2042 | 7.19
298.15 K, x2 = 0.4992 | 19.7
298.15 K, x2 = 0.7774 | 51.7
303.15 K, x2 = 0.1409 | 5.66
308.15 K, x2 = 0 | 3.53
308.15 K, x2 = 0.714 | 24.7
313.15 K, x2 = 0.4992 | 9.8
318.15 K, x2 = 0.0711 | 3.3
318.15 K, x2 = 0.1409 | 3.74

CCCCn1cc[n+](CCOCCOCCOCC[n+]2ccn(CCCC)c2)c1.O=S(=O)([N-]S(=O)(=O)C(F)(F)F)C(F)(F)F.O=S(=O)([N-]S(=O)(=O)C(F)(F)F)C(F)(F)F + CC[n+]1ccn(C)c1.N#C[N-]C#N + O=S(=O)([N-]S(=O)(=O)C(F)(F)F)C(F)(F)F.[Li+]
100 kPa, x1 = 0.1386, x2 = 0.7575
Settings | electrical conductivity [S/m]
298 K | 0.61
303 K | 0.773
313 K | 0.902
323 K | 1.18
333 K | 1.51
344 K | 1.89

CCOS(=O)(=O)[O-].CC[n+]1ccn(C)c1 + CCC(C)O
101 kPa
Settings | viscosity [mPa·s]
298.15 K, x1 = 0.2027 | 6.91
298.15 K, x1 = 0.6944 | 39.6
298.15 K, x1 = 0.7957 | 54.2
303.15 K, x1 = 0.2027 | 6.81
303.15 K, x1 = 0.4906 | 17.37
303.15 K, x1 = 0.8916 | 57.3
308.15 K, x1 = 0.3936 | 9.98
308.15 K, x1 = 0.8916 | 46.8
313.15 K, x1 = 0.2027 | 4.59
313.15 K, x1 = 0.3936 | 9.48
313.15 K, x1 = 0.5916 | 17.67
313.15 K, x1 = 1 | 49.4
318.15 K, x1 = 0.2027 | 4.03
323.15 K, x1 = 0.2937 | 5

CC[n+]1ccn(C)c1.F[P-](F)(F)(F)(F)F + O
viscosity [mPa·s], 100 kPa
Settings | 298.15 K | 303.15 K | 308.15 K
x1 = 1.802e-05 | 0.919 | 0.85 | 0.777
x1 = 5.406e-05 | 0.933 | 0.855 | 0.782
x1 = 9.009e-05 | 0.948 | 0.86 | 0.787

CCCCCC[n+]1ccn(C)c1.O=[N+]([O-])[O-] + CCC(C)O
viscosity [mPa·s], 100 kPa
Settings | 293.15 K | 298.15 K | 303.15 K | 308.15 K | 313.15 K | 318.15 K | 323.15 K
x1 = 0.0819 | 7.63 | 5.55 | 4.2 | 3.3 | 2.59 | 2.14 | 1.79
x1 = 0.1591 | 14.93 | 10.31 | 7.2 | 5.2 | 3.92 | 3.18 | 2.52
x1 = 0.2414 | 28.5 | 19.3 | 13.16 | 9.1 | 6.75 | 5.3 | 3.9
x1 = 0.3517 | 54.2 | 37.9 | 27.6 | 18 | 13.16 | 10.35 | 7.8
x1 = 0.4412 | 87.8 | 63.7 | 46.7 | 30.6 | 21.5 | 16.77 | 12.8
x1 = 0.5591 | 156.2 | 117.1 | 84.5 | 56.4 | 38 | 29.4 | 23
x1 = 0.6518 | 227 | 172.4 | 117.1 | 81.3 | 58.7 | 43 | 33.6
x1 = 0.7392 | 322 | 238 | 158.7 | 113.3 | 84.5 | 60.9 | 47.3
x1 = 0.8516 | 475 | 342 | 230 | 168.2 | 124.1 | 91.6 | 71.1
x1 = 0.9395 | 641 | 451 | 304 | 218 | 159.2 | 119.8 | 94.4
x1 = 1 | 804 | 545 | 369 | 258 | 186 | 140.2 | 110.9

CCOS(=O)(=O)[O-].CC[n+]1ccn(C)c1 + CC[n+]1ccn(C)c1.O=S(=O)([N-]S(=O)(=O)C(F)(F)F)C(F)(F)F
Settings | viscosity [mPa·s]
298.15 K, 100 kPa, x2 = 0 | 100.6

Cn1cc[n+](CCCN)c1.F[B-](F)(F)F + CS(C)=O
101 kPa, frequency 3 MHz
Settings | electrical conductivity [S/m]
293.15 K, x1 = 0.2997 | 0.537
293.15 K, x1 = 0.3997 | 0.334
293.15 K, x1 = 0.5999 | 0.151
293.15 K, x1 = 0.8998 | 0.032
298.15 K, x1 = 0.1003 | 1.08
298.15 K, x1 = 1 | 0.026
303.15 K, x1 = 0.2997 | 0.701
303.15 K, x1 = 0.7001 | 0.151
303.15 K, x1 = 0.8109 | 0.096
303.15 K, x1 = 0.8998 | 0.062
308.15 K, x1 = 0.8109 | 0.12
308.15 K, x1 = 1 | 0.055
313.15 K, x1 = 0.1003 | 1.544
313.15 K, x1 = 0.5999 | 0.323
313.15 K, x1 = 0.8109 | 0.15
318.15 K, x1 = 0.3997 | 0.71
318.15 K, x1 = 0.7001 | 0.264
323.15 K, x1 = 0.4998 | 0.576
323.15 K, x1 = 1 | 0.124
328.15 K, x1 = 0.1003 | 2.107
328.15 K, x1 = 0.2 | 1.611
328.15 K, x1 = 0.3997 | 0.922
333.15 K, x1 = 0.2997 | 1.4
338.15 K, x1 = 0.3997 | 1.17
338.15 K, x1 = 0.8109 | 0.381
338.15 K, x1 = 1 | 0.253
343.15 K, x1 = 0.1003 | 2.77
343.15 K, x1 = 0.5999 | 0.772
353.15 K, x1 = 0.3997 | 1.614

101 kPa
Settings | viscosity [mPa·s]
293.15 K, x1 = 0.2997 | 42.06
293.15 K, x1 = 0.3997 | 58.56
293.15 K, x1 = 0.5999 | 96.13
293.15 K, x1 = 0.8998 | 161.7
298.15 K, x1 = 0.1003 | 10.17
298.15 K, x1 = 1 | 149.6
303.15 K, x1 = 0.2997 | 25.7
303.15 K, x1 = 0.7001 | 74.98
303.15 K, x1 = 0.8109 | 91.64
303.15 K, x1 = 0.8998 | 105.4
308.15 K, x1 = 0.8109 | 75.58
308.15 K, x1 = 1 | 100.2
313.15 K, x1 = 0.1003 | 5.27
313.15 K, x1 = 0.5999 | 40.83
313.15 K, x1 = 0.8109 | 62.45
318.15 K, x1 = 0.3997 | 19.73
318.15 K, x1 = 0.7001 | 42.06
323.15 K, x1 = 0.4998 | 22.1
323.15 K, x1 = 1 | 58.45
328.15 K, x1 = 0.1003 | 3.179
328.15 K, x1 = 0.2 | 6.358
328.15 K, x1 = 0.3997 | 14.21
333.15 K, x1 = 0.2997 | 8.621
333.15 K, x1 = 0.3997 | 12.05
338.15 K, x1 = 0.3997 | 10.36
338.15 K, x1 = 0.8109 | 26.89
338.15 K, x1 = 1 | 36.58
343.15 K, x1 = 0.1003 | 2.166
343.15 K, x1 = 0.5999 | 15.34
353.15 K, x1 = 0.3997 | 7.134

CCCOCCn1cc[n+](C)c1.O=S(=O)([N-]S(=O)(=O)C(F)(F)F)C(F)(F)F + O
101 kPa, x1 = 0.8306
Settings | viscosity [mPa·s]
283 K | 78.3
298.1 K | 38.7

CCCCCCCC[n+]1ccccc1.O=S(=O)([N-]S(=O)(=O)C(F)(F)F)C(F)(F)F + CCCCOC(C)=O
Settings | electrical conductivity [S/m]
298.15 K, 100 kPa, x2 = 0.6824 | 0.371
